Assay results taken from US12329745B2, “Methods and compositions for treating glucocorticoid excess” (Sparrow Pharmaceuticals, Inc., priority 2022, dated 2025).
Marks after values point to notes of the source that are not given here.

Columns and labels:
[1] = target: T1, brain HSD-1 (Homo sapiens, UniProt P28845); test: Brain HSD-1 occupancy by PET, competition with [11C]AS2471907; type: in vivo; details: single dose 3 mg
T1 construct: Brain HSD-1 occupancy following a single dose of SPI-62 3 mg; from tissue; host or cells: brain in vivo
T1 sequence (P28845 whole entry): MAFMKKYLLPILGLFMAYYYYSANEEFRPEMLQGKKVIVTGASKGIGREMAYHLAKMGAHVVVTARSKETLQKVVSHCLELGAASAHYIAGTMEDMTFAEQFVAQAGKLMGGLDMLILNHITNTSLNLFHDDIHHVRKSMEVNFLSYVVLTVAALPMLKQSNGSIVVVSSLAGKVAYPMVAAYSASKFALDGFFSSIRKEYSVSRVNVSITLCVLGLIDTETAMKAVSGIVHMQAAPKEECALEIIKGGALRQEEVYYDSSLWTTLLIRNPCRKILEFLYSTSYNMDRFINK
Experimental: Brain HSD-1 occupancy following a single dose of SPI-62 3 mg, assessed by competition with the HSD-1-specific PET ligand [^11C]AS2471907, was 84-90% at 3.3 to 25 hours, 56-83% at 42 to 46 hours, 36 to 45% at 139 hours, and 26% at 189 hours. The pharmacologic half-life of SPI-62 in brain is, as expected, shorter than that in liver.

[2] = system: C57BL/6 male mice; test: Mitigation of corticosterone (CORT) adverse effects in mouse; type: in vivo; design: food consumption, group Mean: unit not given here; details: for Fat depot weight, Gonadal, Mean / Fat depot weight, Mesenteric, Mean / Fat depot weight, Retroperitoneal, Mean / Fat depot weight, Subcutaneous, Mean / Muscle weight, Quadriceps, Mean / Muscle weight, Tibialis anterior, Mean: post-mortem Day 36
Experimental: A control group received no CORT or SPI-62. Body weight was assessed daily and food consumption twice weekly. Whole body muscle and fat amounts were measured at Days 0, 14, and 28 using an EchoMRI-130H body composition analyzer. Blood samples for fasting glucose and insulin were obtained at Days 1 (pre-dose), 15, 29, and 35. An open field test was conducted on Day 22. A grip strength test was performed on Day 28. After sacrifice on Day 36, gonadal, subcutaneous, retroperitoneal, and mesenteric fat, quadriceps, and tibialis anterior were dissected and weighed, and skin was formalin fixed and paraffin embedded.

[3] = target: HSD-1 (Homo sapiens, UniProt P28845); test: Target-mediated drug disposition (TMDD) population PK / PK-PD model
Chain of HSD-1 (P28845 whole entry): as above

`Cn1c(-c2ccc(C(N)=O)cc2F)nnc1C(C)(C)Oc1c(F)cc(Cl)cc1F` [SPI-62, 4-(5-(2-(4-chloro-2,6-difluorophenoxy)propan-2-yl)-4-methyl-4H-1,2,4-triazol-3-yl)-3-fluorobenzamide] was tested, and the “brain HSD-1 occupancy” value ([1]; 3.3 to 25 hours) was 84-90%, the “brain HSD-1 occupancy” value ([1]; 42 to 46 hours) was 56-83% and the “Whole-body fat content LSM” value ([2]; 1 mg/kg QD + CORT, Day 14) was 0.121^a. For the same molecule, the “Whole-body muscle content LSM” value ([2]; 1 mg/kg QD + CORT, Day 14) was 0.82^a, the “HOMA-IR LSM” value ([2]; 1 mg/kg QD + CORT, Day 15) was 3.73ª mmol glucose/μU insulin and the “Whole-body fat content LSM” value ([2]; 1 mg/kg QD + CORT, Day 28) was 0.142^ab. The “Whole-body muscle content LSM” value ([2]; 1 mg/kg QD + CORT, Day 28) was 0.77^a, the “HOMA-IR LSM” value ([2]; 1 mg/kg QD + CORT, Day 29) was 3.56^ab mmol glucose/μU insulin and the “HOMA-IR LSM” value ([2]; 1 mg/kg QD + CORT, Day 35) was 8.16^b mmol glucose/μU insulin. For the same molecule, the “Fat depot weight, Gonadal, Mean” value ([2]; 1 mg/kg QD + CORT) was 10.60 mg/g body weight, the “Fat depot weight, Mesenteric, Mean” value ([2]; 1 mg/kg QD + CORT) was 6.46 mg/g body weight and the “Fat depot weight, Retroperitoneal, Mean” value ([2]; 1 mg/kg QD + CORT) was 3.33 mg/g body weight. The “Fat depot weight, Subcutaneous, Mean” value ([2]; 1 mg/kg QD + CORT) was 4.04 mg/g body weight, the “Muscle weight, Quadriceps, Mean” value ([2]; 1 mg/kg QD + CORT) was 3.98 mg/g body weight and the “Muscle weight, Tibialis anterior, Mean” value ([2]; 1 mg/kg QD + CORT) was 1.60 mg/g body weight. The “Whole-body fat content LSM” value ([2]; 10 mg/kg BID + CORT, Day 14) was 0.064^b, the “Whole-body muscle content LSM” value ([2]; 10 mg/kg BID + CORT, Day 14) was 0.89^b and the “HOMA-IR LSM” value ([2]; 10 mg/kg BID + CORT, Day 15) was 0.94^b mmol glucose/μU insulin. The “Whole-body fat content LSM” value ([2]; 10 mg/kg BID + CORT, Day 28) was 0.061^b, the “Whole-body muscle content LSM” value ([2]; 10 mg/kg BID + CORT, Day 28) was 0.86^b and the “HOMA-IR LSM” value ([2]; 10 mg/kg BID + CORT, Day 29) was 0.94^b mmol glucose/μU insulin. The “HOMA-IR LSM” value ([2]; 10 mg/kg BID + CORT, Day 35) was 2.16^b mmol glucose/μU insulin, the “Fat depot weight, Gonadal, Mean” value ([2]; 10 mg/kg BID + CORT) was 6.02 mg/g body weight and the “Fat depot weight, Mesenteric, Mean” value ([2]; 10 mg/kg BID + CORT) was 4.73 mg/g body weight. The “Fat depot weight, Retroperitoneal, Mean” value ([2]; 10 mg/kg BID + CORT) was 2.21 mg/g body weight, the “Fat depot weight, Subcutaneous, Mean” value ([2]; 10 mg/kg BID + CORT) was 1.95 mg/g body weight and the “Muscle weight, Quadriceps, Mean” value ([2]; 10 mg/kg BID + CORT) was 5.90 mg/g body weight. The “Muscle weight, Tibialis anterior, Mean” value ([2]; 10 mg/kg BID + CORT) was 2.36 mg/g body weight, the “Whole-body fat content LSM” value ([2]; 10 mg/kg QD + CORT, Day 14) was 0.061^b and the “Whole-body muscle content LSM” value ([2]; 10 mg/kg QD + CORT, Day 14) was 0.87^b. The “HOMA-IR LSM” value ([2]; 10 mg/kg QD + CORT, Day 15) was 1.41^b mmol glucose/μU insulin, the “Whole-body fat content LSM” value ([2]; 10 mg/kg QD + CORT, Day 28) was 0.115^ab and the “Whole-body muscle content LSM” value ([2]; 10 mg/kg QD + CORT, Day 28) was 0.80^b. For the same molecule, the “HOMA-IR LSM” value ([2]; 10 mg/kg QD + CORT, Day 29) was 1.88^ab mmol glucose/μU insulin, the “HOMA-IR LSM” value ([2]; 10 mg/kg QD + CORT, Day 35) was 2.28^b mmol glucose/μU insulin and the “Fat depot weight, Gonadal, Mean” value ([2]; 10 mg/kg QD + CORT) was 8.44 mg/g body weight. The “Fat depot weight, Mesenteric, Mean” value ([2]; 10 mg/kg QD + CORT) was 6.23 mg/g body weight, the “Fat depot weight, Retroperitoneal, Mean” value ([2]; 10 mg/kg QD + CORT) was 2.40 mg/g body weight and the “Fat depot weight, Subcutaneous, Mean” value ([2]; 10 mg/kg QD + CORT) was 3.35 mg/g body weight. For the same molecule, the “Muscle weight, Quadriceps, Mean” value ([2]; 10 mg/kg QD + CORT) was 5.33 mg/g body weight, the “Muscle weight, Tibialis anterior, Mean” value ([2]; 10 mg/kg QD + CORT) was 2.14 mg/g body weight and the body weight, group Mean ([2]; 1 mpk QD + CORT, Baseline) was 22.1 g. The “food consumption, group Mean” value ([2]; 1 mpk QD + CORT, Day 4) was 3.26, the “food consumption, group Mean” value ([2]; 1 mpk QD + CORT, Day 8) was 2.92 and the “food consumption, group Mean” value ([2]; 1 mpk QD + CORT, Day 11) was 3.09. For the same molecule, the body weight, group Mean ([2]; 1 mpk QD + CORT, Day 15) was 21.9 g, the “food consumption, group Mean” value ([2]; 1 mpk QD + CORT, Day 15) was 3.04 and the “food consumption, group Mean” value ([2]; 1 mpk QD + CORT, Day 18) was 2.91. For the same molecule, the “food consumption, group Mean” value ([2]; 1 mpk QD + CORT, Day 22) was 3.23, the “food consumption, group Mean” value ([2]; 1 mpk QD + CORT, Day 25) was 3.74 and the body weight, group Mean ([2]; 1 mpk QD + CORT, Day 29) was 23.2 g. For the same molecule, the “food consumption, group Mean” value ([2]; 1 mpk QD + CORT, Day 29) was 2.90, the “food consumption, group Mean” value ([2]; 1 mpk QD + CORT, Day 32) was 2.77 and the body weight, group Mean ([2]; 1 mpk QD + CORT, Day 35) was 23.8 g. For the same molecule, the “food consumption, group Mean” value ([2]; 1 mpk QD + CORT, Day 36) was 3.13, the body weight, group Mean ([2]; 10 mpk BID + CORT, Baseline) was 22.1 g and the “food consumption, group Mean” value ([2]; 10 mpk BID + CORT, Day 4) was 3.36. The “food consumption, group Mean” value ([2]; 10 mpk BID + CORT, Day 8) was 2.88, the “food consumption, group Mean” value ([2]; 10 mpk BID + CORT, Day 11) was 2.92 and the body weight, group Mean ([2]; 10 mpk BID + CORT, Day 15) was 21.5 g. For the same molecule, the “food consumption, group Mean” value ([2]; 10 mpk BID + CORT, Day 15) was 2.74, the “food consumption, group Mean” value ([2]; 10 mpk BID + CORT, Day 18) was 3.36 and the “food consumption, group Mean” value ([2]; 10 mpk BID + CORT, Day 22) was 2.89. For the same molecule, the “food consumption, group Mean” value ([2]; 10 mpk BID + CORT, Day 25) was 3.13, the body weight, group Mean ([2]; 10 mpk BID + CORT, Day 29) was 21.7 g and the “food consumption, group Mean” value ([2]; 10 mpk BID + CORT, Day 29) was 2.79. For the same molecule, the “food consumption, group Mean” value ([2]; 10 mpk BID + CORT, Day 32) was 3.27, the body weight, group Mean ([2]; 10 mpk BID + CORT, Day 35) was 21.8 g and the “food consumption, group Mean” value ([2]; 10 mpk BID + CORT, Day 36) was 2.83. The body weight, group Mean ([2]; 10 mpk QD + CORT, Baseline) was 22 g, the “food consumption, group Mean” value ([2]; 10 mpk QD + CORT, Day 4) was 3.37 and the “food consumption, group Mean” value ([2]; 10 mpk QD + CORT, Day 8) was 2.98. The “food consumption, group Mean” value ([2]; 10 mpk QD + CORT, Day 11) was 3.11, the body weight, group Mean ([2]; 10 mpk QD + CORT, Day 15) was 21.4 g and the “food consumption, group Mean” value ([2]; 10 mpk QD + CORT, Day 15) was 2.91. For the same molecule, the “food consumption, group Mean” value ([2]; 10 mpk QD + CORT, Day 18) was 3.08, the “food consumption, group Mean” value ([2]; 10 mpk QD + CORT, Day 22) was 3.15 and the “food consumption, group Mean” value ([2]; 10 mpk QD + CORT, Day 25) was 3.50. The body weight, group Mean ([2]; 10 mpk QD + CORT, Day 29) was 22.2 g, the “food consumption, group Mean” value ([2]; 10 mpk QD + CORT, Day 29) was 2.99 and the “food consumption, group Mean” value ([2]; 10 mpk QD + CORT, Day 32) was 3.00. The body weight, group Mean ([2]; 10 mpk QD + CORT, Day 35) was 22.8 g, the “food consumption, group Mean” value ([2]; 10 mpk QD + CORT, Day 36) was 3.24 and the “CORT effects on dermal thickness and structure” value ([2]; 35 days, FIG. 12) was “less prominent”. For the same molecule, the “effect in the open field test” value ([2]; Day 22) was “No effect”, the “CORT adverse effect of grip strength reduction” value ([2]; Day 28) was “prevented” and the IC50 [3] was 0.0234 nM. The Kd [3] was 0.183 nM, the “estimated total target amount (RTOT+RTA) as SPI-62” value ([3]; both, human, in vivo) was 3.6 mg and the “Kd lower than the Ki” value ([3]; in vivo) was “approximately 60 fold”. For the same molecule, the “estimated Kd lower than Ki for purified human HSD-1” value ([3]; in vivo) was 29 fold, the “estimated Kd lower than measured Ki for human HSD-1 expressed in CHO cells” value ([3]; in vivo) was 69 fold and the Hill coefficient ([3]; model parameter estimate) was 1.42. The “association rate constant (kon)” value ([3]; model parameter estimate) was 1.44 nM⁻¹ h⁻¹, the “total target amount in the adipose compartment (RTA)” value ([3]; model parameter estimate) was 671 nM and the koff ([3]; read-out: dissociation rate constant (koff)) was 7.33e-05 s⁻¹.
